Assay results: the OligoGym collection
Where “and” joins values, the source holds several entries; their conditions need not be identical. Identical values can stand only once. After the bases stand the sugars from the 5' end (letter, count) and the backbone: PS all phosphorothioate, else s phosphorothioate and o phosphodiester by linkage. Methylation of C is not given here. e = 2'-O-(2-methoxyethyl) (MOE); d = 2'-deoxy (DNA)

Molecular target: DGAT2
Settings: ASO

## ACCCAACCTTTAAGGCCTAT (sugars e5 d10 e5, PS)
HepG2, 2.5 µM
  target mRNA inhibition: 69% and 59% and 70%
HepG2, 10 µM
  target mRNA inhibition: 93% and 91% and 95%

## CAACAGGCTCTGGTTCCATG (sugars e5 d10 e5, PS)
HepG2, 0.12 µM
  target mRNA inhibition: 56%

## TTATAATTTCTTTTAAATAA (sugars e5 d10 e5, PS)
HepG2, 0.12 µM
  target mRNA inhibition: 0%

## CAGGTAAGGCCGTATGCCTG (sugars e2 d13 e5, PS)
HepG2, 0.12 µM
  target mRNA inhibition: 59%

## TGGCTCTCTAGATAGGGTGG (sugars e5 d10 e5, PS)
HepG2, 2.5 µM
  target mRNA inhibition: 84% and 85%
HepG2, 10 µM
  target mRNA inhibition: 89% and 87%

## TGCAGGCCCAGCACCAAGGA (sugars e5 d10 e5, PS)
HepG2, 2.5 µM
  target mRNA inhibition: 19%
HepG2, 10 µM
  target mRNA inhibition: 39%

## ATGCCTGAGGGCAGCAGTGT (sugars e5 d10 e5, PS)
HepG2, 0.12 µM
  target mRNA inhibition: 45%

## TAACCCACAGACACCCATGA (sugars e5 d10 e5, PS)
HepG2, 0.12 µM
  target mRNA inhibition: 14%

## GCTCAGAGACTCAGCCGCAC (sugars e3 d14 e3, PS)
HepG2, 0.12 µM
  target mRNA inhibition: 69%

## GTCCTGCAGTTTCAGGACTA (sugars e5 d10 e5, PS)
HepG2, 0.12 µM
  target mRNA inhibition: 54%

## TGGTGGTCAGCAGGTTGTGT (sugars e5 d10 e5, PS)
HepG2, 0.12 µM
  target mRNA inhibition: 51%

## GAGTAGTCAAAGGTGGCTTC (sugars e5 d10 e5, PS)
HepG2, 2.5 µM
  target mRNA inhibition: 66%
HepG2, 10 µM
  target mRNA inhibition: 78%

## CAGCTAATGATACAAGGTTG (sugars e5 d10 e5, PS)
HepG2, 0.12 µM
  target mRNA inhibition: 55%

## AGCTCATGAGAAGCTTAGAA (sugars e5 d10 e5, PS)
HepG2, 2.5 µM
  target mRNA inhibition: 62%
HepG2, 10 µM
  target mRNA inhibition: 82%

## CACCATAATCTGCACAGGTT (sugars e5 d10 e5, PS)
HepG2, 2.5 µM
  target mRNA inhibition: 86% and 94%
HepG2, 10 µM
  target mRNA inhibition: 88% and 93%

## GTATCCTTAAAGCAGGGCCC (sugars e5 d10 e5, PS)
HepG2, 2.5 µM
  target mRNA inhibition: 84% and 81%
HepG2, 10 µM
  target mRNA inhibition: 85% and 89%

## GAAATCTGAGTGCTGCTAAC (sugars e5 d10 e5, PS)
HepG2, 2.5 µM
  target mRNA inhibition: 71%
HepG2, 10 µM
  target mRNA inhibition: 91%

## CCACTGGAGCACTGAGATGA (sugars e5 d10 e5, PS)
HepG2, 0.12 µM
  target mRNA inhibition: 71%

## GCCACCTGCTTTGGAACTAA (sugars e5 d10 e5, PS)
HepG2, 0.12 µM
  target mRNA inhibition: 41%

## AAGGACAGAGGTTCAACATC (sugars e5 d10 e5, PS)
HepG2, 2.5 µM
  target mRNA inhibition: 7%
HepG2, 10 µM
  target mRNA inhibition: 67%

## CACAGTCATCTTGTGTACAT (sugars e5 d10 e5, PS)
HepG2, 2.5 µM
  target mRNA inhibition: 74% and 76%
HepG2, 10 µM
  target mRNA inhibition: 92% and 93%

## AGTCACTGACTCACAACAGC (sugars e5 d10 e5, PS)
HepG2, 2.5 µM
  target mRNA inhibition: 45%
HepG2, 10 µM
  target mRNA inhibition: 83%

## TGGAGCTCAGAGACTCAGCC (sugars e2 d13 e5, PS)
HepG2, 0.12 µM
  target mRNA inhibition: 82%

## CCAGGTGTCGGAGGAGAAGA (sugars e5 d10 e5, PS)
HepG2, 0.12 µM
  target mRNA inhibition: 53%

## ATCCCAACTCTGCCATTTAA (sugars e5 d10 e5, PS)
HepG2, 2.5 µM
  target mRNA inhibition: 60%
HepG2, 10 µM
  target mRNA inhibition: 90%

## CAGGTAAGGCCGTATGCCTG (sugars e3 d14 e3, PS)
HepG2, 0.12 µM
  target mRNA inhibition: 72%

## AAAGTCTGACATGGTGC (sugars e3 d10 e4, PS)
HepG2, 2.5 µM
  target mRNA inhibition: 48%
HepG2, 10 µM
  target mRNA inhibition: 81%

## TGAGGCCCTTCAGCTTGTGC (sugars e5 d10 e5, PS)
HepG2, 0.12 µM
  target mRNA inhibition: 49%

## CTCTGCGCGATTCACTGAGG (sugars e5 d10 e5, PS)
HepG2, 2.5 µM
  target mRNA inhibition: 53%
HepG2, 10 µM
  target mRNA inhibition: 86%

## GAGAAGAGGTCCTGGAGGGC (sugars e5 d10 e5, PS)
HepG2, 0.12 µM
  target mRNA inhibition: 10%

## GGTAAGGCCGTATGCCTGGG (sugars e2 d13 e5, PS)
HepG2, 0.12 µM
  target mRNA inhibition: 53%

## AGATGGACAGGTGATTCTAA (sugars e5 d10 e5, PS)
HepG2, 0.12 µM
  target mRNA inhibition: 50%

## TTTTAAATAACCCACAGACA (sugars e5 d10 e5, PS)
HepG2, 0.12 µM
  target mRNA inhibition: 10%
HepG2, 2.5 µM
  target mRNA inhibition: 92%
HepG2, 10 µM
  target mRNA inhibition: 60%
HepG2, 20 µM
  target mRNA inhibition: 81%

## GTGCAGCCTACAAGAGCCTG (sugars e5 d10 e5, PS)
HepG2, 2.5 µM
  target mRNA inhibition: 67%
HepG2, 10 µM
  target mRNA inhibition: 86%

## CTGTGGCACTAAGCTAGGCA (sugars e5 d10 e5, PS)
HepG2, 2.5 µM
  target mRNA inhibition: 64%
HepG2, 10 µM
  target mRNA inhibition: 82%

## CGTTGGTCTTTTTGGCTGCC (sugars e5 d10 e5, PS)
HepG2, 2.5 µM
  target mRNA inhibition: 88%
HepG2, 10 µM
  target mRNA inhibition: 81%

## GGGTCAAGGTCACTCAGCCA (sugars e5 d10 e5, PS)
HepG2, 0.12 µM
  target mRNA inhibition: 33%

## ATTCATCTTTCCAGATCCGG (sugars e5 d10 e5, PS)
HepG2, 2.5 µM
  target mRNA inhibition: 92%
HepG2, 10 µM
  target mRNA inhibition: 88%

## AAAAGGAGTTTGTGTTTCCC (sugars e5 d10 e5, PS)
HepG2, 2.5 µM
  target mRNA inhibition: 84% and 86%
HepG2, 10 µM
  target mRNA inhibition: 92% and 95%

## TCATCTTTCCAGATCCGGAC (sugars e5 d10 e5, PS)
HepG2, 2.5 µM
  target mRNA inhibition: 76%
HepG2, 10 µM
  target mRNA inhibition: 89%

## TAGGCATGCTTCCTCCCACT (sugars e5 d10 e5, PS)
HepG2, 2.5 µM
  target mRNA inhibition: 65%
HepG2, 10 µM
  target mRNA inhibition: 84%

## ATGGAGTGACAGGGCAGGAA (sugars e5 d10 e5, PS)
HepG2, 0.12 µM
  target mRNA inhibition: 59%

## TCCAAGTGTACTTTGAGCAT (sugars e5 d10 e5, PS)
HepG2, 2.5 µM
  target mRNA inhibition: 58% and 54%
HepG2, 10 µM
  target mRNA inhibition: 84% and 91%

## CCAGTTTCGGACCCACTGTG (sugars e3 d14 e3, PS)
HepG2, 0.12 µM
  target mRNA inhibition: 82%

## GCTGTGATGACTTCCCAGGG (sugars e5 d10 e5, PS)
HepG2, 2.5 µM
  target mRNA inhibition: 75%
HepG2, 10 µM
  target mRNA inhibition: 86%
